Experimental data from PubChem BioAssay (NCI).
“And” between values parts separate entries of the source, which are not always exact repeats. Equal values may be shown once.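 Following 48 hours of exposure in 96-well plates, responses at five concentrations were used to interpolate endpoints linearly. GI50: concentration for 50% inhibition of growth. TGI: concentration producing complete growth inhibition.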

How the values were obtained:
Experiment in all cases: NCI-60 cell line screen, 48 h
786-0 renal = system: 786-0 renal
SNB-75 CNS = system: SNB-75 CNS
TK-10 renal = system: TK-10 renal
SK-MEL-2 melanoma = system: SK-MEL-2 melanoma
UACC-257 melanoma = system: UACC-257 melanoma
OVCAR-3 ovarian = system: OVCAR-3 ovarian
MOLT-4 leukemia = system: MOLT-4 leukemia
K-562 leukemia = system: K-562 leukemia
SR leukemia = system: SR leukemia
SF-295 CNS = system: SF-295 CNS

## [2H]C([2H])([2H])NC(=O)c1nnc(NC(=O)C2CC2)cc1Nc1cccc(-c2ncn(C)n2)c1OC
786-0 renal
  GI50: 28.4 µM
  TGI: > 100 µM
SNB-75 CNS
  GI50: 15 µM
  TGI: > 100 µM
TK-10 renal
  GI50: 8.28 µM
  TGI: > 100 µM
SK-MEL-2 melanoma
  GI50: 10.6 µM
  TGI: 83.8 µM
UACC-257 melanoma
  GI50: > 100 µM
  TGI: > 100 µM
OVCAR-3 ovarian
  GI50: 41.3 µM
  TGI: > 100 µM
MOLT-4 leukemia
  GI50: 0.934 µM
  TGI: > 100 µM
K-562 leukemia
  GI50: 31.2 µM
  TGI: > 100 µM
SR leukemia
  GI50: 16.9 µM
  TGI: > 100 µM
SF-295 CNS
  GI50: 53.4 µM
  TGI: > 100 µM

## O=[N+]([O-])c1cc[n+]([O-])c2ccccc12
786-0 renal
  GI50: 0.217 µM
  TGI: 0.753 µM
SNB-75 CNS
  GI50: 0.176 µM
  TGI: 0.465 µM
TK-10 renal
  GI50: 0.187 µM
  TGI: 0.707 µM
SK-MEL-2 melanoma
  GI50: 0.169 µM
  TGI: 0.377 µM
UACC-257 melanoma
  GI50: 0.229 µM
  TGI: 0.77 µM
OVCAR-3 ovarian
  GI50: 0.197 µM
  TGI: 0.471 µM
MOLT-4 leukemia
  GI50: 1.9 µM
  TGI: 6.35 µM
K-562 leukemia
  GI50: 0.26 µM
  TGI: 2.07 µM
SR leukemia
  GI50: 0.0245 µM
  TGI: > 100 µM
SF-295 CNS
  GI50: 0.2 µM
  TGI: 0.627 µM

## O=C1NC(N/N=C\C(O)C(O)C(O)C(O)CO)=N/C1=C/c1ccccc1 (centres undefined)
786-0 renal
  GI50: 57.5 µM and 19.3 µM and > 100 µM
  TGI: > 100 µM and 41.3 µM
SNB-75 CNS
  GI50: > 100 µM and 24.9 µM
  TGI: > 100 µM and 54 µM
TK-10 renal
  GI50: > 100 µM and 19 µM
  TGI: > 100 µM and 48.3 µM
SK-MEL-2 melanoma
  GI50: > 100 µM and 16.6 µM
  TGI: > 100 µM and 32.7 µM
UACC-257 melanoma
  GI50: > 100 µM and 19.9 µM
  TGI: > 100 µM and 45 µM
OVCAR-3 ovarian
  GI50: 97.1 µM and 20.5 µM and > 100 µM
  TGI: > 100 µM and 37.7 µM
MOLT-4 leukemia
  GI50: 22.3 µM and 2.74 µM and 25.7 µM
K-562 leukemia
  GI50: 67.6 µM and 33.8 µM and 28.8 µM
  TGI: > 100 µM
SR leukemia
  GI50: 51 µM and 16.3 µM and 99.4 µM
  TGI: > 100 µM and 51.2 µM
SF-295 CNS
  GI50: 84.1 µM and 16.2 µM and > 100 µM
  TGI: > 100 µM and 38.2 µM

## OC1(c2ccccc2)C2CC=CC2C1(c1ccccc1)c1ccccc1 (centres undefined)
786-0 renal
  TGI: > 100 µM
SNB-75 CNS
  TGI: > 100 µM
TK-10 renal
  TGI: > 100 µM
SK-MEL-2 melanoma
  TGI: 27.5 µM
UACC-257 melanoma
  TGI: 81.4 µM
OVCAR-3 ovarian
  TGI: > 100 µM
MOLT-4 leukemia
  TGI: > 100 µM
K-562 leukemia
  TGI: > 100 µM
SR leukemia
  TGI: > 100 µM
SF-295 CNS
  TGI: > 100 µM

## O=C(NCCN1CCOCC1)OCc1nc2nc(Cl)nc(N3CCOCC3)c2[nH]1
786-0 renal
  GI50: 23.7 µM
  TGI: > 100 µM
SNB-75 CNS
  GI50: 4.12 µM
  TGI: > 100 µM
TK-10 renal
  GI50: > 100 µM
  TGI: > 100 µM
SK-MEL-2 melanoma
  GI50: 6.66 µM
  TGI: > 100 µM
UACC-257 melanoma
  GI50: > 100 µM
  TGI: > 100 µM
OVCAR-3 ovarian
  GI50: 1.15 µM
  TGI: 7.18 µM
MOLT-4 leukemia
  GI50: 3.32 µM
  TGI: > 100 µM
K-562 leukemia
  GI50: 2.43 µM
  TGI: > 100 µM
SR leukemia
  GI50: 0.728 µM
  TGI: > 100 µM
SF-295 CNS
  GI50: 5.77 µM
  TGI: > 100 µM

## C#C[C@]1(O)CC[C@H]2[C@@H]3CC=C4c5sc(Nc6cc(F)ccc6F)nc5CC[C@]4(C)[C@H]3CC[C@@]21C
786-0 renal
  GI50: 0.415 µM
  TGI: 1.84 µM
SNB-75 CNS
  GI50: 0.736 µM
  TGI: 2.18 µM
TK-10 renal
  GI50: 2.58 µM
  TGI: 5.37 µM
SK-MEL-2 melanoma
  GI50: 1.59 µM
  TGI: 4.14 µM
UACC-257 melanoma
  GI50: 1.83 µM
  TGI: 4.31 µM
OVCAR-3 ovarian
  GI50: 1.62 µM
  TGI: 3.16 µM
MOLT-4 leukemia
  GI50: 0.416 µM
  TGI: 10.2 µM
K-562 leukemia
  GI50: 1.96 µM
  TGI: > 100 µM
SR leukemia
  GI50: 0.568 µM
  TGI: > 100 µM
SF-295 CNS
  GI50: 0.224 µM
  TGI: 0.592 µM

## C#CC1(O)CCC2C3CCc4cc(Oc5nc(F)nc(-c6c7ccccc7c7n6CCS7)n5)ccc4C3CC[C@@]21C (some centres undefined)
786-0 renal
  TGI: > 100 µM
SNB-75 CNS
  TGI: 49.1 µM
TK-10 renal
  TGI: 71.3 µM
SK-MEL-2 melanoma
  TGI: 23.9 µM
UACC-257 melanoma
  TGI: > 100 µM
OVCAR-3 ovarian
  TGI: 32.2 µM
MOLT-4 leukemia
  TGI: > 100 µM
K-562 leukemia
  TGI: > 100 µM
SR leukemia
  TGI: 92.3 µM
SF-295 CNS
  TGI: 30.1 µM

## COc1cc2c3c(n(CCCN)c(=O)c2cc1OC)-c1ccc([N+](=O)[O-])cc1C3=O
786-0 renal
  GI50: 1.66 µM
  TGI: 3.55 µM
SNB-75 CNS
  GI50: 16.3 µM
  TGI: 34.7 µM
TK-10 renal
  GI50: 20.7 µM
  TGI: 41.4 µM
SK-MEL-2 melanoma
  GI50: 0.0173 µM
  TGI: 5.19 µM
UACC-257 melanoma
  GI50: 31 µM
  TGI: > 100 µM
OVCAR-3 ovarian
  GI50: 16.5 µM
  TGI: 37.5 µM
MOLT-4 leukemia
  GI50: 0.434 µM
  TGI: 16.2 µM
K-562 leukemia
  GI50: 5.57 µM
  TGI: 31.3 µM
SR leukemia
  GI50: 0.0731 µM
  TGI: 10.4 µM
SF-295 CNS
  GI50: 0.912 µM
  TGI: 17.9 µM

## COC(=O)c1c2c(c(C)[n+]([O-])c1C)C(=O)C=C(NCc1ccccc1)C2=O
786-0 renal
  GI50: 2.33 µM
  TGI: 6.88 µM
SNB-75 CNS
  GI50: 1.82 µM
  TGI: 3.22 µM
TK-10 renal
  GI50: 2.92 µM
  TGI: 7.19 µM
SK-MEL-2 melanoma
  GI50: 1.25 µM
  TGI: 2.82 µM
UACC-257 melanoma
  GI50: 0.261 µM
  TGI: 0.962 µM
OVCAR-3 ovarian
  GI50: 0.277 µM
  TGI: 0.791 µM
MOLT-4 leukemia
  GI50: 0.619 µM
  TGI: 2.83 µM
K-562 leukemia
  GI50: 0.418 µM
  TGI: 3.05 µM
SR leukemia
  GI50: 0.895 µM
  TGI: 5.66 µM
SF-295 CNS
  GI50: 1.11 µM
  TGI: 2.35 µM

## C=CC(=O)N1CCC(c2ccc(C(N)=O)c(-c3ccc(Oc4ccccc4)cc3)n2)CC1
786-0 renal
  GI50: 31.9 µM
  TGI: > 100 µM
SNB-75 CNS
  GI50: 17 µM
  TGI: > 100 µM
TK-10 renal
  GI50: 19.2 µM
  TGI: 99.4 µM
SK-MEL-2 melanoma
  GI50: 27.1 µM
  TGI: > 100 µM
UACC-257 melanoma
  GI50: 27.9 µM
  TGI: > 100 µM
OVCAR-3 ovarian
  GI50: 36 µM
  TGI: > 100 µM
MOLT-4 leukemia
  GI50: 27.3 µM
  TGI: > 100 µM
K-562 leukemia
  GI50: 26.9 µM
  TGI: > 100 µM
SR leukemia
  GI50: 28 µM
  TGI: > 100 µM
SF-295 CNS
  GI50: 27.3 µM
  TGI: > 100 µM

## Cc1c(C(=O)C/C(=N/NC(=O)c2ccccc2)C(=O)Nc2ccc(Cl)cc2)[n+](=O)c2ccccc2n1[O-]
786-0 renal
  TGI: > 100 µM
SNB-75 CNS
  TGI: > 100 µM
TK-10 renal
  TGI: > 100 µM
SK-MEL-2 melanoma
  TGI: > 100 µM
UACC-257 melanoma
  TGI: > 100 µM
OVCAR-3 ovarian
  TGI: > 100 µM
MOLT-4 leukemia
  TGI: > 100 µM
K-562 leukemia
  TGI: > 100 µM
SR leukemia
  TGI: > 100 µM
SF-295 CNS
  TGI: > 100 µM

## O=C(CCN1CCCC1)Nc1ccc2c(NCc3ccccc3)c3ccccc3nc2c1
786-0 renal
  GI50: 0.684 µM
  TGI: 1.99 µM
SNB-75 CNS
  GI50: 0.398 µM
  TGI: 1.7 µM
TK-10 renal
  GI50: 0.802 µM
  TGI: 3.5 µM
SK-MEL-2 melanoma
  GI50: 0.598 µM
  TGI: 2.08 µM
UACC-257 melanoma
  GI50: 1.45 µM
  TGI: 3.3 µM
OVCAR-3 ovarian
  GI50: 0.495 µM
  TGI: 1.97 µM
MOLT-4 leukemia
  GI50: 0.364 µM
  TGI: 2.03 µM
K-562 leukemia
  GI50: 0.385 µM
  TGI: 1.41 µM
SR leukemia
  GI50: 0.261 µM
  TGI: 1.58 µM
SF-295 CNS
  GI50: 0.494 µM
  TGI: 1.91 µM

## CC(C)C1CO[C@]2(C)CCC(=O)N12 (some centres undefined)
786-0 renal
  TGI: > 100 µM
SNB-75 CNS
  TGI: > 100 µM
TK-10 renal
  TGI: > 100 µM
SK-MEL-2 melanoma
  TGI: > 100 µM
UACC-257 melanoma
  TGI: > 100 µM
OVCAR-3 ovarian
  TGI: > 100 µM
MOLT-4 leukemia
  TGI: > 100 µM
K-562 leukemia
  TGI: > 100 µM
SR leukemia
  TGI: > 100 µM
SF-295 CNS
  TGI: > 100 µM

## COc1ccc2c(c1)nc(NNC(=O)c1cnccn1)c1cccn12
786-0 renal
  GI50: 0.432 µM
  TGI: 2.18 µM
SNB-75 CNS
  GI50: 0.458 µM
  TGI: 3.06 µM
TK-10 renal
  GI50: 0.157 µM
  TGI: 3.18 µM
SK-MEL-2 melanoma
  GI50: 0.697 µM
  TGI: 3.88 µM
UACC-257 melanoma
  GI50: 0.756 µM
  TGI: 4.42 µM
OVCAR-3 ovarian
  GI50: 0.186 µM
  TGI: 3.82 µM
MOLT-4 leukemia
  GI50: 0.159 µM
  TGI: > 85.5 µM
K-562 leukemia
  GI50: 0.393 µM
  TGI: > 100 µM
SR leukemia
  GI50: 0.24 µM
  TGI: > 41.3 µM
SF-295 CNS
  GI50: 0.175 µM
  TGI: 1.76 µM

## O=C1CCc2c(sc3[nH]c(=S)n(-c4cc(C(F)(F)F)cc(C(F)(F)F)c4)c(=O)c23)C1
786-0 renal
  GI50: 0.602 µM
  TGI: 10.5 µM
SNB-75 CNS
  GI50: 0.328 µM
  TGI: 3.66 µM
TK-10 renal
  GI50: 0.874 µM
  TGI: > 44.1 µM
SK-MEL-2 melanoma
  GI50: 0.721 µM
  TGI: 3.74 µM
UACC-257 melanoma
  GI50: 0.725 µM
  TGI: 4.6 µM
OVCAR-3 ovarian
  GI50: 0.358 µM
  TGI: 1.49 µM
MOLT-4 leukemia
  GI50: 0.636 µM
  TGI: 9.15 µM
K-562 leukemia
  GI50: 0.185 µM
  TGI: > 73.1 µM
SR leukemia
  GI50: 0.516 µM
  TGI: > 100 µM
SF-295 CNS
  GI50: 0.318 µM
  TGI: 1.1 µM
